Reference: ChEMBL document CHEMBL3046136, “Evaluation of antidepressant-like effect of 2-pyrazoline derivatives” (Med Chem Res, 2010)

Legend:
Mus musculus [1] = assay: Toxicity in Mus musculus albino (mouse) assessed as resting time at 100 mg/kg, ip; format: organism-based; set-up: dose 100 mg/kg, route intraperitoneal; settings: in vivo
Mus musculus [2] = assay: Antidepressant-like activity in Mus musculus albino (mouse) assessed as immobility time at 100 mg/kg, ip measured after 30 min by forced swim test (reference value: 167 +/- 17 sec); format: functional; settings: route intraperitoneal
Mus musculus [3] = assay: Antidepressant-like activity in Mus musculus albino (mouse) assessed as latency for first immobilization at 100 mg/kg, ip measured after 30 min by forced swim test (reference value: 68 +/- 13 sec); format: functional; settings: route intraperitoneal
Mus musculus [4] = assay: Toxicity in Mus musculus albino (mouse) assessed as increase in total distance travelled at 100 mg/kg, ip; format: organism-based; set-up: dose 100 mg/kg, route intraperitoneal; settings: in vivo
Mus musculus [5] = assay: Toxicity in Mus musculus albino (mouse) assessed as increase in horizontal activity at 100 mg/kg, ip; format: organism-based; set-up: dose 100 mg/kg, route intraperitoneal; settings: in vivo
Mus musculus [6] = assay: Toxicity in Mus musculus albino (mouse) assessed as resting time at 10 mg/kg, ip; format: organism-based; set-up: dose 10 mg/kg, route intraperitoneal; settings: in vivo
Mus musculus [7] = assay: Toxicity in Mus musculus albino (mouse) assessed as increase in horizontal activity at 10 mg/kg, ip; format: organism-based; set-up: dose 10 mg/kg, route intraperitoneal; settings: in vivo
Mus musculus [8] = assay: Toxicity in Mus musculus albino (mouse) assessed as increase in total distance travelled at 10 mg/kg, ip; format: organism-based; set-up: dose 10 mg/kg, route intraperitoneal; settings: in vivo
Mus musculus [9] = assay: Toxicity in Mus musculus albino (mouse) assessed as decrease in total distance travelled at 100 mg/kg, ip; format: organism-based; set-up: dose 100 mg/kg, route intraperitoneal; settings: in vivo
Mus musculus [10] = assay: Toxicity in Mus musculus albino (mouse) assessed as decrease in horizontal activity at 100 mg/kg, ip; format: organism-based; set-up: dose 100 mg/kg, route intraperitoneal; settings: in vivo

In the case of `Cc1ccc(C2CC(c3cccs3)=NN2C(=O)CSC(=S)N2CCSCC2)cc1` (stereo not drawn), the Activity (Mus musculus [1]) is reported as 81%, the Time (Mus musculus [2]) is reported as 113 s and the Time (Mus musculus [3]) is reported as 60 s.

Molecule `O=C(CSC(=S)N1CCOCC1)N1N=C(c2cccs2)CC1c1ccc(Cl)cc1` (stereo not drawn) has an Activity (Mus musculus [1]) of 80%, a Time (Mus musculus [2]) of 112 s and a Time (Mus musculus [3]) of 36 s.

`COc1ccc(C2CC(c3cccs3)=NN2C(=O)CSC(=S)N2CCSCC2)cc1` (stereo not drawn) was tested, and the Activity (Mus musculus [4]) was “Toxic”, the Activity (Mus musculus [5]) was “Toxic” and the Activity (Mus musculus [1]) was 72%. It also gave a Time (Mus musculus [2]) of 134 s and a Time (Mus musculus [3]) of 80 s.

`N[C@@H]1C[C@H]1c1ccccc1.N[C@H]1C[C@@H]1c1ccccc1` (racemic) [TRANYLCYPROMINE] was tested, and the Activity (Mus musculus [6]) was 89%.

`CN(C)CCCN1c2ccccc2CCc2ccc(Cl)cc21` [CLOMIPRAMINE] was tested, and the Activity (Mus musculus [6]) was 73%, the Activity (Mus musculus [7]) was “Toxic” and the Activity (Mus musculus [8]) was “Toxic”.

Molecule `COc1ccc(C2CC(c3cccs3)=NN2C(=O)CSC(=S)N2CCOCC2)cc1` (stereo not drawn) has an Activity (Mus musculus [1]) of 84%, a Time (Mus musculus [2]) of 139 s and a Time (Mus musculus [3]) of 94 s.

In the case of `Cc1ccc(C2CC(c3cccs3)=NN2C(=O)CSC(=S)N2CCOCC2)cc1` (stereo not drawn), the Activity (Mus musculus [9]) is reported as “Toxic”, the Activity (Mus musculus [10]) is reported as “Toxic” and the Activity (Mus musculus [1]) is reported as 89%. It also gave a Time (Mus musculus [2]) of 129 s and a Time (Mus musculus [3]) of 99 s.

For `O=C(CSC(=S)N1CCOCC1)N1N=C(c2cccs2)CC1c1ccccc1` (stereo not drawn), the Activity (Mus musculus [4]) was “Toxic”, the Activity (Mus musculus [5]) was “Toxic” and the Activity (Mus musculus [1]) was 77%. For the same molecule, the Time (Mus musculus [2]) was 148 s and the Time (Mus musculus [3]) was 73 s.

In the case of `O=C(CSC(=S)N1CCSCC1)N1N=C(c2cccs2)CC1c1ccc(Cl)cc1` (stereo not drawn), the Activity (Mus musculus [9]) is reported as “Toxic”, the Activity (Mus musculus [10]) is reported as “Toxic” and the Activity (Mus musculus [1]) is reported as 80%. It also gave a Time (Mus musculus [2]) of 136 s and a Time (Mus musculus [3]) of 77 s.

`O=C(CSC(=S)N1CCSCC1)N1N=C(c2cccs2)CC1c1ccccc1` (stereo not drawn) was tested, and the Activity (Mus musculus [4]) was “Toxic”, the Activity (Mus musculus [5]) was “Toxic” and the Activity (Mus musculus [1]) was 73%. It also gave a Time (Mus musculus [2]) of 84 s and a Time (Mus musculus [3]) of 72 s.
